Values of other authors, collected in US20040247633A1, “Novel dermatological composition” (EBERSYTES, LLC, priority 2003, published 2004).

Conditions: metal chelate

- Affinity Constant: 10^10-10^12
SMILES: CC(O)C(=O)[O-].CC(O)C(=O)[O-].[Cu+2] (stereo not shown) [Copper lacate]
